Experiment [1] addresses T1, Tyrosine-protein phosphatase non-receptor type 22 (Homo sapiens, UniProt Q9Y2R2).
T1 sequence (Q9Y2R2 whole entry): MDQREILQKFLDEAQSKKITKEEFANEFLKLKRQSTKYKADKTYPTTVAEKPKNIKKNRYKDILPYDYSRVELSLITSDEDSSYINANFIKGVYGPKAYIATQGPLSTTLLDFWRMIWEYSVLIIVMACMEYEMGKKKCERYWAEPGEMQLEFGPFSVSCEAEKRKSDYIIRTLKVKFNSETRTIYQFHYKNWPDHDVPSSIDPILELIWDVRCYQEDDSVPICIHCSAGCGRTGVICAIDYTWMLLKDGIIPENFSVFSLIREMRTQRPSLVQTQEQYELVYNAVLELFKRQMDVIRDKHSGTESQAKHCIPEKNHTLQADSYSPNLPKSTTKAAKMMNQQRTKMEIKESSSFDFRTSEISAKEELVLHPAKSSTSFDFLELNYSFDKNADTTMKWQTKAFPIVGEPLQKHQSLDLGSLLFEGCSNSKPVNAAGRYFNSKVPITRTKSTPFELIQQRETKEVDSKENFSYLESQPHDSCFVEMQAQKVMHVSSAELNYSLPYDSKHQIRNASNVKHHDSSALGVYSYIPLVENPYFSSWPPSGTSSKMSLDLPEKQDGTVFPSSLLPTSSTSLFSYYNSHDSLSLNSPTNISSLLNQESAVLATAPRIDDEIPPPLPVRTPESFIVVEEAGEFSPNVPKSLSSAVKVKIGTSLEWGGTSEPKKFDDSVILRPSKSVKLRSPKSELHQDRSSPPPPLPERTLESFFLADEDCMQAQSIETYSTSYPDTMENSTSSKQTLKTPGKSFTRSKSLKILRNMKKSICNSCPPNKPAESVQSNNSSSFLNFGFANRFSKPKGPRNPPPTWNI
Briefly: Inhibition of LYP (unknown origin) expressed in Escherichia coli using pNPP substrate after 5 mins by spectrophotometric analysis.

Experiment [2] addresses T2, Tyrosine-protein phosphatase non-receptor type 9 (Homo sapiens, UniProt P43378).
T2 sequence (P43378 whole entry): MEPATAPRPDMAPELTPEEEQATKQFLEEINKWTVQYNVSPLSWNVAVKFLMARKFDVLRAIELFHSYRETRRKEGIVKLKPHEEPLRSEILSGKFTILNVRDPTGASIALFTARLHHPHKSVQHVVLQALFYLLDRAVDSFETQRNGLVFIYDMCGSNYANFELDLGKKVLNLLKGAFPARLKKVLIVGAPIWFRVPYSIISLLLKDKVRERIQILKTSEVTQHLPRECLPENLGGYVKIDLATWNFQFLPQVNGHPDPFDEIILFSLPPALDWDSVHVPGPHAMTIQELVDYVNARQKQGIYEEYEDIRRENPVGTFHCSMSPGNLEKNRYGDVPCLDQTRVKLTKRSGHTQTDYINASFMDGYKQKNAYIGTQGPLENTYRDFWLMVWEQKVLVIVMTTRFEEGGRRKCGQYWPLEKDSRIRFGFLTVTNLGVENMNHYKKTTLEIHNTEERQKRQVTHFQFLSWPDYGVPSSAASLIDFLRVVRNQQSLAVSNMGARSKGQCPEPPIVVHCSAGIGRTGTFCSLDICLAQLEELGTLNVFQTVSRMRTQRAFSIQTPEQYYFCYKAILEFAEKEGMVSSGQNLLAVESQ
Briefly: Inhibition of PTPMEG2 (unknown origin) expressed in Escherichia coli using pNPP substrate after 5 mins by spectrophotometric analysis.

Experiment [3] concerns the target T3, Tyrosine-protein phosphatase non-receptor type 1 (Homo sapiens, UniProt P18031).
T3 sequence (P18031 whole entry): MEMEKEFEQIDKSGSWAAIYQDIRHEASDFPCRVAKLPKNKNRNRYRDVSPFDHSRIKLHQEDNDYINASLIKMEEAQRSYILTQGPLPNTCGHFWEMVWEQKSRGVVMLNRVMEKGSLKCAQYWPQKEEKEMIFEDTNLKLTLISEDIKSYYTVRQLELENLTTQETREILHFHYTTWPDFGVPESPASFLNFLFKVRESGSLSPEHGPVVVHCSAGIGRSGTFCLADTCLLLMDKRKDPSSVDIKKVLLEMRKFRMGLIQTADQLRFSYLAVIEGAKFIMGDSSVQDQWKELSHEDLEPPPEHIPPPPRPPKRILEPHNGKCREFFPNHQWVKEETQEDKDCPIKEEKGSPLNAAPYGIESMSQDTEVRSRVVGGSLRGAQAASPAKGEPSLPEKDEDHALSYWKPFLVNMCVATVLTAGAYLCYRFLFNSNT
Briefly: Inhibition of PTP1B (unknown origin) expressed in Escherichia coli using pNPP substrate after 5 mins by spectrophotometric analysis.

The target of experiment [4] is Dual specificity protein phosphatase 3 (Homo sapiens, UniProt P51452). Nature of the experiment: Inhibition of VHR (unknown origin) expressed in Escherichia coli using pNPP substrate after 5 mins by spectrophotometric analysis.
Sequence of Dual specificity protein phosphatase 3 (P51452 whole entry): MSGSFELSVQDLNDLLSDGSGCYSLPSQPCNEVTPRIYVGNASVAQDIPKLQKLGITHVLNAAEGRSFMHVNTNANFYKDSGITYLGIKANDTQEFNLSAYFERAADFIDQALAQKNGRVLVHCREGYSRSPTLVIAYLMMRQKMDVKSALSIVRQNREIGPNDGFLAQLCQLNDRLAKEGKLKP
Experiment [5] concerns the target T4, Tyrosine-protein phosphatase non-receptor type 11 (Homo sapiens, UniProt Q06124).
T4 sequence (Q06124 whole entry): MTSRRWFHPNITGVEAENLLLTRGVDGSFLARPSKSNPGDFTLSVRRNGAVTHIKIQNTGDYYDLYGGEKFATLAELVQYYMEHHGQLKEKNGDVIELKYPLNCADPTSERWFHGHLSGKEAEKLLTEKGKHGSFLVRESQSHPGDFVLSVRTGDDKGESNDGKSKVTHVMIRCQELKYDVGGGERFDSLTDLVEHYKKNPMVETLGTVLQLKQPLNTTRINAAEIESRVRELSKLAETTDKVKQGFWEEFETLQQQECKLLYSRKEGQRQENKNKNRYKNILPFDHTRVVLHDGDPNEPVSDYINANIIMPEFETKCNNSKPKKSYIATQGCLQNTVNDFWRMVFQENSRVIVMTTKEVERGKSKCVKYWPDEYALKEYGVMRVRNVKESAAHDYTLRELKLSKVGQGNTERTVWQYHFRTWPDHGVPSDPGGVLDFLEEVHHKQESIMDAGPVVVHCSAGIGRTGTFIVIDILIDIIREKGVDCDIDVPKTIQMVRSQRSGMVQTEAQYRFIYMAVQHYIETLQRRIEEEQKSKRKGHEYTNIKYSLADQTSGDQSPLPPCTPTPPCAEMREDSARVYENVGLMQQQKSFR
Nature of the experiment: Inhibition of SHP2 (unknown origin) expressed in Escherichia coli using pNPP substrate after 5 mins by spectrophotometric analysis.

As to `O=C(O)c1cc2c(CCc3cccc(C(F)(F)F)c3)c(-c3ccccc3)oc2cc1O`, the half-maximal inhibitory concentration (IC50) (usually the midpoint of a concentration-inhibition curve) in experiment [1] came out at 3.5 µM; in experiment [2] it was 8.6 µM; in experiment [3] it was 7.4 µM; in experiment [4] it was 6.2 µM; in experiment [5], 4.5 µM.
For `O=C(O)c1cc2c(CCc3ccc(Oc4ccccc4)cc3)c(-c3ccccc3)oc2cc1O` the same measures were 2.2 µM, 7.7 µM, 8 µM, 6.3 µM and 3.6 µM.
Consider `O=C(O)c1cc2c(/C=C\c3cc(F)cc(F)c3)c(-c3ccccc3)oc2cc1O`, for which the IC50 in experiment [1] amounted to 3.7 µM; in experiment [2] it was 9.2 µM; in experiment [3], 8 µM; in experiment [4], 8.6 µM; in experiment [5] it was 5 µM.
For `C#Cc1c(-c2ccccc2)oc2cc(O)c(C(=O)O)cc12` the same measures were 50 µM, 85 µM, over 50 µM, over 50 µM and 31 µM.
Taken in the same sequence, the figures for `C[C@]12CCC(=O)C=C1CC[C@@H]1[C@@H]2CC[C@@]2(C)[C@H]1CC[C@]2(O)C#Cc1c(-c2ccccc2)oc2cc(O)c(C(=O)O)cc12` were 12.2 µM, over 100 µM, over 50 µM, over 100 µM and 30 µM.
On to `O=C(O)c1cc2c(CCc3cccc(F)c3)c(-c3ccccc3)oc2cc1O`, for which the IC50 came to 12.4 µM in experiment [1]; 110 µM in experiment [2]; 60 µM in experiment [3]; 22 µM in experiment [4]; 10.9 µM in experiment [5].
As to `O=C(O)c1cc2c(CCc3ccc(OC(F)(F)F)cc3)c(-c3ccccc3)oc2cc1O`, the IC50 turned out to be 4.1 µM in experiment [1], 8.4 µM in experiment [2], 8.4 µM in experiment [3] and 6.7 µM in experiment [4].
For `O=C(O)c1cc2c(C#CCO)c(-c3ccccc3)oc2cc1O`, the IC50 in experiment [1], in experiment [2], in experiment [3], in experiment [4] and in experiment [5] was over 100 µM each time.

For the origin of these results see ChEMBL document CHEMBL2311454, “Discovery and evaluation of novel inhibitors of mycobacterium protein tyrosine phosphatase B from the 6-Hydroxy-benzofuran-5-carboxylic acid scaffold” (J Med Chem, 2013).
